Assay results published in PMC6420642, “Applications and limitations of fitting of the operational model to determine relative efficacies of agonists” (Scientific Reports, 2019).

Legend:
[1] = biological target: T1, M2_G15 fusion protein (M2 muscarinic receptor fused with the G15 G-protein alpha-subunit) (Homo sapiens, UniProt P08172); test: biochemical; design: gene CHRM2
T1 sequence (P08172 1-466): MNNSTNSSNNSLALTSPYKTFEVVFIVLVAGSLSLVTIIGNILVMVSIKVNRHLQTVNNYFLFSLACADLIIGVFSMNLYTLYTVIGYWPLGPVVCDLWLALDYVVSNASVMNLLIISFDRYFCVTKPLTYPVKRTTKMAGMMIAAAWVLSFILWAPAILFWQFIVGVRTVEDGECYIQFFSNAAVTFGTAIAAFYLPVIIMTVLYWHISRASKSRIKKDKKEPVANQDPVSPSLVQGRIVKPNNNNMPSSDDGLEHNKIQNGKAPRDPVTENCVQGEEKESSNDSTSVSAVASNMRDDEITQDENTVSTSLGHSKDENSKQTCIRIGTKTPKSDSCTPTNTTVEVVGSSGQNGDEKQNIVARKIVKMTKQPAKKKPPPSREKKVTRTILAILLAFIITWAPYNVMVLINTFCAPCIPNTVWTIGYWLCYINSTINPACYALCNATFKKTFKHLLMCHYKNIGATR
T1 sequence (P30679 1-374 partner): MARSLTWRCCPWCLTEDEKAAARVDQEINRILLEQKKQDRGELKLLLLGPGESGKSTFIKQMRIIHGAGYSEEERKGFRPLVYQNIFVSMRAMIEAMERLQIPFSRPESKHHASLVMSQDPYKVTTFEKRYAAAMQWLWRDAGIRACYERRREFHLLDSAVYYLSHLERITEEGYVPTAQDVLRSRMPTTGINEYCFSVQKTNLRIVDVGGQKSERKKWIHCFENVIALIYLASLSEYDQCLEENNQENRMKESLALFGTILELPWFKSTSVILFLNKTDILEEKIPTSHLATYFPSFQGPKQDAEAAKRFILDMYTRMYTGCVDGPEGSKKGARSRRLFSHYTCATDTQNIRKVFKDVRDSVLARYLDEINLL

[2] = biological target: T2, M4_G15 fusion protein (M4 muscarinic receptor fused with the G15 G-protein alpha-subunit) (Homo sapiens, UniProt P08173); test: biochemical; design: gene CHRM4
T2 sequence (P08173 1-479): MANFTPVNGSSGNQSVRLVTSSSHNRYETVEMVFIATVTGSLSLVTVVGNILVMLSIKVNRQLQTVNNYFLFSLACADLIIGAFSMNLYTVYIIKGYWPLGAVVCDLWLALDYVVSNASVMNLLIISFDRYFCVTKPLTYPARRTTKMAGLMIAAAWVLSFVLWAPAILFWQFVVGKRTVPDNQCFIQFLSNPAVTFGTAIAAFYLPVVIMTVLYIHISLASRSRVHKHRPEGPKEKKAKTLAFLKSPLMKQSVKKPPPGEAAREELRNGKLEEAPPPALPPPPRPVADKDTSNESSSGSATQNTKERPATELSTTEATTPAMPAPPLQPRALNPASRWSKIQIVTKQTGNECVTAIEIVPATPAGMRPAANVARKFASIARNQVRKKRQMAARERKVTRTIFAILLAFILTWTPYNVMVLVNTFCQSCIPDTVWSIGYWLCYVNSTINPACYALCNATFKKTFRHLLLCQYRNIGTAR
T2 sequence (P30679 1-374 partner): T1 sequence (P30679 1-374 partner)

[3] = biological target: T2, M4_G15 fusion protein (M4 muscarinic receptor fused with the G15 G-protein alpha-subunit); test: agonist-stimulated […]GTPγS binding, membranes; type: biochemical; design: gene CHRM4; M4 fused via ARATR linker to N-terminus of G15 alpha-subunit (one fused chain); clone #3, except KA from all five clones
[4] = biological target: T1, M2_G15 fusion protein (M2 muscarinic receptor fused with the G15 G-protein alpha-subunit); test: agonist-stimulated […]GTPγS binding, membranes; type: biochemical; design: gene CHRM2; clone #3, except KA from all five clones

pEC50 ([4]; clone #[…], agonist; […] […]GTPγS, […] GDP, […] MgCl2, […] °C)	Structure (SMILES)	Ki [1]	Ki [2]	EC50 [3]	EC50 [4]
	O=C1CCCN1CC#CCN1CCCC1 [oxotremorine]	1660 nM	1480 nM	17 nM	18.6 nM
6.84 ± 0.03	Clc1ccc2c(c1)N=C(N1CCNCC1)c1ccccc1N2 [NDMC]				
